{"source": "patent US20240164385A1", "about": "“A SYNERGISTIC PLANT GROWTH STIMULANT COMPOSITION COMPRISING POTASSIUM MONO/DIFORMATE AND METAL ION COMPOUNDS TO ENHANCED METABOLIC ACTIVITIES IN PLANTS” (FERTIS INDIA PVT LTD, priority 2021, published 2024)", "format_in_all_cases": "in vivo", "key": {"[1]": {"test_system": "paddy grain", "assay": "Estimation of total protein content in paddy grain samples by Lowry method", "conditions": "660 nm", "description": "To the above solution add 5 g of Na2co3 mix well. B. 1% NAK Tartrate (Sodium Potassium Tartrate) Preparation: • Dissolve 1 g of NAK tartrate in 100 ml of volumetric flask and then make up to mark with distilled water. C. […] Dissolve 100 mg of BSA in 100 ml of volumetric flask and then make up to mark with distilled water. Take 6 test tubes then add to the above solution each of 0.1, 0.2, 0.3, 0.4, 0.5, 0.6. Sample Procedure: • i. […] Then filter through whatman filter paper 1 we take test tubes and add 1 ml of each sample. • iii. Add 4.5 ml of reagent 1 and incubate for 10 mins. • iv. After incubation add 0.5 ml of reagent 2 and incubate for 30 mins. • v. Measure the absorbance at 660 nm and plot the standard graph. The Analysis of protein estimation in grain samples is performed by Lowry method with UV Vis Spectro photo meter at 660 nm."}, "[2]": {"test_system": "paddy grain", "assay": "Estimation of total phenol content in paddy grain samples (Folin-Ciocalteu)", "conditions": "absorbance at 765 nm", "description": "Folin-Ciocalteu's Phenol Reagent Preparation: Take 5 ml of folin ciocalteu's phenol reagent in 50 ml of volumetric flask and then make up to the mark with distilled water 7.5% of Na2CO3 Preparation: Take 7.5 g of Na2CO3 in 100 ml of volumetric flask and then make up to mark with distilled water. Sample Procedure: • i. […] Keep it hot plate for extraction at 95° C. for 1 hr. • iii. After 1 hr filter through whatman filter paper 1 and then make up to 25 ml of volumetric flask with 70% methanol. • iv. […] Incubation for 5 mins. • vi. After 5 mins add 4 ml of 7.5% Na2CO3 mix well then keep it dark place incubation for 1 hr. • vii. Measure the absorbance at 765 nm. • viii. […] Check OD @765 nm."}, "[3]": {"test_system": "paddy grain", "assay": "Micronutrient absorption levels in paddy grains by ICP", "conditions": "paddy grain samples", "description": "Analysis of Micronutrients in Paddy Samples by ICP (Inductive Coupled Plasma) Equipment.\n• i. 1 gm of grain powder added to 60 ml of perchloric acid and Nitric acid (9:1) digest for overnight. • ii. Heat at 100° C. for 2 hours until vapors change from red to white color. • iii. The resultant solution filtered through Whatman paper and makeup to 100 ml with 1% nitric acid."}}, "data": [{"smiles": "O=C[O-].[K+]", "note": "[Potassium formate]", "values": [{"measurement": "Total Protein content", "setting": "[1]", "result": 0.086, "unit": "ppm"}, {"measurement": "Phenol Content", "setting": "[2]", "result": 16.69, "unit": "ppm"}, {"measurement": "B (Boron)", "setting": "[3]", "result": 38.4, "unit": "ppm"}, {"measurement": "Ca (Calcium)", "setting": "[3]", "result": 401.7, "unit": "ppm"}, {"measurement": "Co (Cobalt)", "setting": "[3]", "result": 14.2, "unit": "ppm"}, {"measurement": "Cu (Copper)", "setting": "[3]", "result": 37.0, "unit": "ppm"}, {"measurement": "Fe (Iron)", "setting": "[3]", "result": 401.0, "unit": "ppm"}, {"measurement": "Mg (Magnesium)", "setting": "[3]", "result": 646.0, "unit": "ppm"}, {"measurement": "Mn (Manganese)", "setting": "[3]", "result": 46.5, "unit": "ppm"}, {"measurement": "Zn (Zinc)", "setting": "[3]", "result": 50.6, "unit": "ppm"}]}, {"smiles": "O=CO.O=C[O-].[K+]", "note": "[Potassium diformate]", "values": [{"measurement": "Total Protein content", "setting": "[1]", "result": 0.084, "unit": "ppm"}, {"measurement": "Phenol Content", "setting": "[2]", "result": 17.96, "unit": "ppm"}, {"measurement": "B (Boron)", "setting": "[3]", "result": 35.9, "unit": "ppm"}, {"measurement": "Ca (Calcium)", "setting": "[3]", "result": 399.0, "unit": "ppm"}, {"measurement": "Co (Cobalt)", "setting": "[3]", "result": 14.2, "unit": "ppm"}, {"measurement": "Cu (Copper)", "setting": "[3]", "result": 35.0, "unit": "ppm"}, {"measurement": "Fe (Iron)", "setting": "[3]", "result": 397.0, "unit": "ppm"}, {"measurement": "Mg (Magnesium)", "setting": "[3]", "result": 678.0, "unit": "ppm"}, {"measurement": "Mn (Manganese)", "setting": "[3]", "result": 50.4, "unit": "ppm"}, {"measurement": "Zn (Zinc)", "setting": "[3]", "result": 66.6, "unit": "ppm"}]}]}
